In PMC10515640, “Structure-Based Optimization of Covalent, Small-Molecule Stabilizers of the 14-3-3σ/ERα Protein–Protein Interaction from Nonselective Fragments” (Journal of the American Chemical Society, 2023):
Where two headings read alike, the source gives them in different places.

Columns and labels:
14-3-3σ/ERα [1] = target: T1, 14-3-3σ/ERα (Homo sapiens, UniProt P03372+P31947); test: Fluorescence anisotropy compound titration, FAM-labeled ERα peptide; assay type: binding; settings: for EC50: 10 nM ERα-FAM labeled peptide, 1 µM 14-3-3σ, overnight incubation (24 h)
T1 construct: The 14-3-3 σ isoform (full-length for mass spectrometry and fluorescence anisotropy assays, ΔC for crystallography); made in house; host or cells: E. coli Rosetta 2(DE3)pLysS, pPROEX HTb vector
Outline: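 Fluorescence anisotropy compound titration measuring stabilization of the 14-3-3σ/ERα interaction: compounds were titrated in a 2-fold dilution series (starting at 500 or 1000 µM) into a mix of 10 nM fluorescein-labeled ERα peptide and 1 µM 14-3-3σ (about EC25 of the complex) in HEPES buffer with 1% DMSO, read after overnight incubation at room temperature; EC50 from 4PL fitting.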

14-3-3σ/ERα [2] = target: T1, 14-3-3σ/ERα; test: Mass spectrometry dose response, compound binding to 14-3-3σ in the presence of ERα phosphopeptide; settings: 100 nM compound, 100 nM 14-3-3σ, ERα-peptide 2 µM
Outline: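 Covalent labeling of Cys38 on 14-3-3σ was tracked by LC-MS on a Waters Acquity UPLC/Xevo G2-XS Q-Tof, with samples desalted on a Protein BEH-C4 column. Full-length wild type 14-3-3σ (100 nM) plus ERα phosphopeptide was mixed with compound in 10 mM TRIS, pH 8.0, at 50 μl per well. Percent bound was measured at several time points.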

14-3-3σ/C-RAF [3] = target: T2, 14-3-3σ/C-RAF (Homo sapiens, UniProt P31947); test: Mass spectrometry dose response, compound binding to 14-3-3σ in the presence of C-RAF phosphopeptide; settings: 100 nM compound, 100 nM 14-3-3σ, C-RAF peptide 18 µM
T2 construct: The 14-3-3 σ isoform (full-length for mass spectrometry and fluorescence anisotropy assays, ΔC for crystallography); made in house; host or cells: E. coli Rosetta 2(DE3)pLysS, pPROEX HTb vector
T2 sequence (P31947 1-248): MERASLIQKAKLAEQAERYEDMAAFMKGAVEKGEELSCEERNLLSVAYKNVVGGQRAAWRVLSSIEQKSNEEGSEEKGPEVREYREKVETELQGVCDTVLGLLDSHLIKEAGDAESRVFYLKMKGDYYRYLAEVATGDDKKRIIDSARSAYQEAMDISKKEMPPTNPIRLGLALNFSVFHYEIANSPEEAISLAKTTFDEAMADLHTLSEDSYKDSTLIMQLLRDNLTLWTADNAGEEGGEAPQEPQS
Outline: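 Covalent binding of compounds to the native Cys38 of 14-3-3σ was monitored by LC-MS on a Waters Acquity UPLC/Xevo G2-XS Q-Tof, with samples desalted on a BEH-C4 column. Full-length wild type 14-3-3σ (100 nM) with C-RAF peptide in TRIS buffer (10 mM, pH 8.0) was incubated with compound dose series at room temperature.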

14-3-3σ = target: T3, 14-3-3σ (Homo sapiens, UniProt P31947); test: Mass spectrometry dose response, compound binding to 14-3-3σ in the absence of peptide (apo); settings: 100 nM compound, 100 nM 14-3-3σ
T3 construct: The 14-3-3 σ isoform (full-length for mass spectrometry and fluorescence anisotropy assays, ΔC for crystallography); made in house; host or cells: E. coli Rosetta 2(DE3)pLysS, pPROEX HTb vector
T3 sequence (P31947 1-248): T2 sequence (P31947 1-248)
Outline: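 Covalent binding of compounds to Cys38 of full-length wild type human 14-3-3σ (100 nM) was measured by LC-MS without peptide present. Compounds from 50 mM DMSO stocks were serially diluted 3-fold and 1000 nl transferred to plates in TRIS buffer (10 mM, pH 8.0), 50 μl per well. Samples were desalted on a BEH-C4 column and analysed on a Xevo G2-XS Q-Tof at several time points.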

14-3-3σ/ERα [4] = target: T1, 14-3-3σ/ERα; test: Fluorescence anisotropy compound titration, FAM-labeled ERα peptide; settings: labeling in MS assay, peptide binding in FA assay
14-3-3σ/C-RAF [5] = target: T2, 14-3-3σ/C-RAF; test: Fluorescence anisotropy compound titration, FAM-labeled C-RAF peptide; assay type: binding; settings: for stabilization of 14-3-3σ/C-RAF (in words): MS and FA assays, abstract: up to 150 μM compound
14-3-3σ/ERα [6] = target: T1, 14-3-3σ/ERα; test: Fluorescence anisotropy protein titration, FAM-labeled ERα peptide; assay type: binding; settings: 10 nM FAM-ERα peptide
Procedure: To evaluate compound-mediated stabilization of the 14-3-3σ/ERα complex directly, FA protein titrations were performed at a saturating concentration of compound. FA protein titrations allowed the quantification of the cooperative effect by comparing the apparent dissociation constants (appKD) of the binary and ternary complexes. 14-3-3σ was titrated into 10 nM FAM-labeled ERα peptide in the presence of DMSO or 100 μM of the compounds (Table S4). […]
diluted in buffer (10 mM HEPES, pH 7.5, 150 mM NaCl, 0.1% Tween20, 1 mg/mL Bovine Serum Albumin (BSA; Sigma-Aldrich). Final DMSO in the assay was always 1%. […]
Protein titrations were made by titrating 14-3-3σ in a 2-fold dilution series (starting at 300 µM) to a mix of fluorescein-labeled peptide (10 nM) and DMSO or compound (100 µM). Fluorescence anisotropy measurements were performed after overnight incubation at room temperature. […]
Wells containing only FAM-peptide were used to set as G-factor at 35 mP. Data reported are at endpoint. EC50 and apparent Kd values were obtained from fitting the data with a four-parameter logistic model (4PL) in GraphPad Prism 7 for Windows. Data was obtained and averaged based on either three (compound titrations) or two (protein titrations) independent experiments.

14-3-3σ/C-RAF [7] = target: T2, 14-3-3σ/C-RAF; test: Fluorescence anisotropy compound titration, FAM-labeled C-RAF peptide; assay type: binding; settings: 10 nM C-RAF-FAM labeled peptide, 5 µM 14-3-3σ, overnight incubation; read-out: EC50 value C-RAF (FA compound titration)
Outline: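 A fluorescence anisotropy compound titration measured how compounds stabilize binding of 14-3-3σ to a fluorescein-labeled C-RAF peptide. Compounds were diluted 2-fold, from 500 or 1000 µM, into 10 nM labeled peptide with 5 µM 14-3-3σ, roughly its EC25, in HEPES buffer with 1% DMSO. Plates were read after overnight incubation at room temperature. EC50 values came from 4PL fits over three independent experiments.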

[8] = read-out: EC50 value ERα (FA compound titration)
[9] = EC50 value ERα (FA compound titration)

SMILES | EC50 (14-3-3σ/ERα [1]; [8]) [µM] | Percentage (%) bound of compound to 14-3-3σ, ERα 1h (14-3-3σ/ERα [2]) [%] | Percentage (%) bound of compound to 14-3-3σ, ERα 8h (14-3-3σ/ERα [2]) [%] | Percentage (%) bound of compound to 14-3-3σ, ERα 16h (14-3-3σ/ERα [2]) [%] | Percentage (%) bound of compound to 14-3-3σ, ERα 24h (14-3-3σ/ERα [2]) [%] | Percentage (%) bound of compound to 14-3-3σ, CRAF 1h (14-3-3σ/C-RAF [3]) [%] | Percentage (%) bound of compound to 14-3-3σ, CRAF 8h (14-3-3σ/C-RAF [3]) [%] | Percentage (%) bound of compound to 14-3-3σ, CRAF 24h (14-3-3σ/C-RAF [3]; 24h) [%] | Percentage (%) bound of compound to 14-3-3σ, CRAF 24h (14-3-3σ/C-RAF [3]; head prints 24h) [%] | Percentage (%) bound of compound to 14-3-3σ, APO 1h (14-3-3σ) [%] | Percentage (%) bound of compound to 14-3-3σ, APO 8h (14-3-3σ) [%] | Percentage (%) bound of compound to 14-3-3σ, APO 16h (14-3-3σ) [%] | Percentage (%) bound of compound to 14-3-3σ, APO 24h (14-3-3σ) [%] | activity in MS and FA assays (in words) (14-3-3σ/ERα [4]) | EC50 (14-3-3σ/ERα [1]; [9]) [µM] | EC50 (14-3-3σ/C-RAF [7]) [µM] | stabilization of 14-3-3σ/C-RAF (in words) (14-3-3σ/C-RAF [5]) | further results
CC(C)(Nc1ccccc1)C(=O)N1CCC(CNC(=O)CCl)CC1 [compound 85] | > 150 | 0.9 | 1.2 | 1.5 | 1.5 | 0.9 | 1.2 | 1.5 | 1.5 | 0 | 0 | 0 | 0 | inactive | – | – | – | –
O=C(CCl)NCC1CCN(C(=O)C2(Nc3ccc(Cl)cc3)CCCC2)CC1 [compound 118] | – | 11.2 | 24.1 | 60.1 | 96.6 | 2.9 | 3.4 | 23.7 | 11.5 | 0 | 0 | 0.8 | 13.0 | – | 5 ± 0.4 | – | – | selectivity for ERα (over C-RAF, FA EC50) (14-3-3σ/ERα [1]; FA compound titrations): greater than 30 fold; EC50 (14-3-3σ/C-RAF [5]; EC50 value C-RAF (FA compound titration), 10 nM C-RAF-FAM labeled peptide, 5 µM 14-3-3σ, overnight incubation): > 150 µM
O=C(CCl)NCC1CCN(C(=O)C2(Nc3ccc(Cl)cc3)CCNCC2)CC1 [compound 131] | 2 ± 0.3 | 54.4 | 82.2 | 94.0 | 98.3 | 2.0 | 2.4 | 12.5 | 4.6 | 1.4 | 2.2 | 5.8 | 14.1 | – | – | > 150 | no stabilization | X Fold stabilization (100 µM compound) of 14-3-3σ/ERα (14-3-3σ/ERα [6]; versus DMSO reference): 30 fold; Kd (14-3-3σ/ERα [6]; 100 µM compound, overnight incubation): 0.049 µM
NC1CCC(Nc2ccc(Cl)cc2)(C(=O)N2CCC(CNC(=O)CCl)CC2)CC1 (stereo not drawn) [compound 137] | 8 ± 1 | 36.3 | 60.4 | 90.0 | 96.4 | 1.7 | 3.6 | 10.4 | 6.6 | 1.4 | 1.9 | 3.2 | 9.3 | – | – | > 150 | no stabilization | –
C=CS(=O)(=O)NCC1CCN(C(=O)C2(Nc3ccc(Cl)cc3)CCOCC2)CC1 [compound 155] | – | 0.6 | 1.5 | 5.9 | 14.1 | 0 | 0 | 1.0 | 0 | 0 | 0.7 | 4.6 | 31.4 | inactive | > 150 | – | – | –
